Converted amounts (≈) assume the structure as drawn.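 Interpolation was linear, between the two tested concentrations surrounding the appropriate level; five concentrations were tested over 48 hours in 96-well plates. GI50 marks 50% less growth. The concentration for full growth arrest is given as TGI.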 The source made the active and inactive calls. Cut-off read from the data, not from the text of the source: active = GI50 below about 0.43 µM; inactive = the rest.
Experiments:
Assay in all cases: growth of human tumour cells (NCI), 48 h
[1] = test system: XF 498 CNS
[2] = test system: SF-539 CNS
[3] = test system: NCI-H522 lung
[4] = test system: DMS 273 small cell lung
[5] = test system: K-562 leukemia
[6] = test system: SF-268 CNS
[7] = test system: SW-620 colon
[8] = test system: UO-31 renal
[9] = test system: A498 renal
[10] = test system: HCT-116 colon
[11] = test system: M19-MEL melanoma
[12] = test system: SNB-78 CNS
[13] = test system: HCT-15 colon
[14] = test system: MALME-3M melanoma
[15] = test system: NCI-H460 lung
[16] = test system: M14 melanoma
[17] = test system: HOP-92 NSCLC
[18] = test system: RXF 393 renal
[19] = test system: LOX IMVI melanoma
[20] = test system: NCI-H226 lung
[21] = test system: TK-10 renal
[22] = test system: A549 NSCLC
[23] = test system: IGROV1 ovarian
[24] = test system: COLO 205 colon
[25] = test system: HL-60(TB) leukemia
[26] = test system: OVCAR-5 ovarian
[27] = test system: NCI-H23 lung
[28] = test system: ACHN renal
[29] = test system: U251 CNS
[30] = test system: SNB-75 CNS
[31] = test system: OVCAR-8 ovarian
[32] = test system: LXFL 529 NSCLC
[33] = test system: HCC-2998 colon
[34] = test system: SK-MEL-5 melanoma
[35] = test system: RXF-631 renal
[36] = test system: SK-MEL-28 melanoma
[37] = test system: SK-MEL-2 melanoma
[38] = test system: EKVX NSCLC
[39] = test system: OVCAR-4 ovarian
[40] = test system: MOLT-4 leukemia
[41] = test system: DLD-1 colon
[42] = test system: KM20L2 colon
[43] = test system: SN12C renal
[44] = test system: DMS 114 small cell lung
[45] = test system: CCRF-CEM leukemia
[46] = test system: RPMI-8226 leukemia
[47] = test system: HOP-62 NSCLC
[48] = test system: SNB-19 CNS
[49] = test system: 786-0 renal
[50] = test system: UACC-62 melanoma

C/C=C1/C(=C/c2[nH]c(/C=c3\[nH]/c(=C/C4=NC(=O)C(CC)=C4C)c(C)c3CCC(=O)O)c(CCC(=O)O)c2C)NC(=O)C1C (stereo unspecified)
> 150 µg/mL: TGI [2] | TGI [3] | TGI [4] | TGI [5] | TGI [6] | TGI [7] | TGI [8] | TGI [9] | TGI [10] | TGI [11] | TGI [12] | TGI [13] | TGI [14] | TGI [15] | TGI [16] | TGI [17] | TGI [18] | TGI [19] | TGI [20] | TGI [21] | TGI [22] | TGI [23] | TGI [24] | TGI [25] | TGI [26] | TGI [27] | TGI [28] | TGI [29] | TGI [30] | TGI [31] | TGI [33] | TGI [34] | TGI [36] | TGI [37] | TGI [38] | TGI [39] | TGI [40] | TGI [41] | TGI [43] | TGI [44] | TGI [45] | TGI [46] | TGI [47] | TGI [48] | TGI [49] | TGI [50]
inactive: outcome [1] | GI50 [2] > 150 µg/mL | GI50 [3] > 150 µg/mL | GI50 [4] > 150 µg/mL | GI50 [5] > 150 µg/mL | GI50 [6] > 150 µg/mL | GI50 [7] > 150 µg/mL | GI50 [8] > 150 µg/mL | GI50 [9] > 150 µg/mL | GI50 [10] > 150 µg/mL | GI50 [11] > 150 µg/mL | GI50 [12] > 150 µg/mL | GI50 [13] > 150 µg/mL | GI50 [14] > 150 µg/mL | GI50 [15] > 150 µg/mL | GI50 [16] > 150 µg/mL | GI50 [17] 103 µg/mL (≈ 175 µM) | GI50 [18] > 150 µg/mL | GI50 [19] > 150 µg/mL | GI50 [20] > 150 µg/mL | GI50 [21] > 150 µg/mL | GI50 [22] > 150 µg/mL | GI50 [23] > 150 µg/mL | GI50 [24] > 150 µg/mL | GI50 [25] > 150 µg/mL | GI50 [26] > 150 µg/mL | GI50 [27] > 150 µg/mL | GI50 [28] > 150 µg/mL | GI50 [29] > 150 µg/mL | GI50 [30] > 150 µg/mL | GI50 [31] > 150 µg/mL | outcome [32] | GI50 [33] > 150 µg/mL | GI50 [34] > 150 µg/mL | outcome [35] | GI50 [36] > 150 µg/mL | GI50 [37] > 150 µg/mL | GI50 [38] > 150 µg/mL | GI50 [39] > 150 µg/mL | GI50 [40] > 150 µg/mL | GI50 [41] > 150 µg/mL | outcome [42] | GI50 [43] > 150 µg/mL | GI50 [44] > 150 µg/mL | GI50 [45] > 150 µg/mL | GI50 [46] > 150 µg/mL | GI50 [47] > 150 µg/mL | GI50 [48] > 150 µg/mL | GI50 [49] > 150 µg/mL | GI50 [50] > 150 µg/mL

— PubChem BioAssay (NCI)
